≈ marks a conversion by molar mass, not a printed value. Like-named read-outs stand apart in the source and are kept apart here. Starred links: 1 amine or outer side, 2 acyl side, 3 side chain; linkers in the order of their positions; H or OH if unused. Positions of bridges follow the written chain, without caps; N, C: chain ends. Residues, ends and D or L forms follow the SMILES beside them. *: point of attachment. C20 diacid = O=C(O)CCCCCCCCCCCCCCCCCCC(=O)*; γGlu = O=C(O)[C@H](CCC(=O)[*:2])N[*:1]

Data set [1] can be described thus: Assay (IV) determination of solubility. The class given is physicochemical. The procedure, abridged: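 Solubility is measured across pH 3.0–8.0 by mixing a ~500 nmol/ml aqueous polypeptide stock 1:1 with 100 mM glycylglycine or bistrispropane buffers. Samples stand 18 hours at room temperature, then are centrifuged and the soluble concentration is determined by HPLC.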

Data set [2] is described as follows: Assay (III) ThT fibrillation assay for physical stability. Particulars: ThT fibrillation assay. The class given is physicochemical. Put shortly:
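Freshly prepared formulations, pH-adjusted, with 1 μM ThT; four or eight replicates incubated at 37 °C under 960 rpm orbital shaking. Fluorescence (ex 444/em 485 nm) read every 20 min; […]. Peptide concentration measured by RP-HPLC before and after the run.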

The target of data set [3] is T1, human calcitonin receptor (Homo sapiens, UniProt P30988).
T1 construct: expressed in transfected cells; host or cells: BHK570
T1 sequence (P30988 25-474): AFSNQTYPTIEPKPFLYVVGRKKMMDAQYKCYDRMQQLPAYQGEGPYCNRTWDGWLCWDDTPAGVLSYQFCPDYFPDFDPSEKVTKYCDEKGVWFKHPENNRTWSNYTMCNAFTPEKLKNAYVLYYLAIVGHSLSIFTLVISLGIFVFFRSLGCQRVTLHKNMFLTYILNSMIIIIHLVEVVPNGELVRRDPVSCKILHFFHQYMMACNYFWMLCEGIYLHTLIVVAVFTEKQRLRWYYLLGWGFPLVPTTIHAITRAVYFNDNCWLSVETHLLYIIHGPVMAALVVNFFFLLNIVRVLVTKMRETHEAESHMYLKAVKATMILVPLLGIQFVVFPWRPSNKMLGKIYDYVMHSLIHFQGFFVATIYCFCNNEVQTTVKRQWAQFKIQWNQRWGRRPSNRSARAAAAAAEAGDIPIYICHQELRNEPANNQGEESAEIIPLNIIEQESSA
As to the kind of experiment: Assay (II)a functional CRE-luciferase assay, human calcitonin receptor. Format: cell-based. The following applies: Table 7; human calcitonin (CTa) receptor.

Data set [4] concerns the target T2, human amylin receptor (amylin 3(a) receptor: human calcitonin receptor + RAMP-3) (Homo sapiens, UniProt O60896+P30988).
T2 construct: expressed in transfected cells; host or cells: BHK570
T2 sequence (P30988 25-474): T1 sequence (P30988 25-474)
T2 sequence (O60896 24-148 partner): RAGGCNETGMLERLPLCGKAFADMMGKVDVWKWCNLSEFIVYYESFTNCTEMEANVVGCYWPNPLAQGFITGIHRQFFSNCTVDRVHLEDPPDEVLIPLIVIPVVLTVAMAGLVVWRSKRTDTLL
As to the kind of experiment: Assay (II)a functional CRE-luciferase assay, human amylin receptor. Format: cell-based.

Setting [5] is: bistrispropane buffer, pH 6, pH 6.0, read-out: Solubility pH 6.0.
The mark [6] stands for this setting: bistrispropane buffer, pH 6.5, pH 6.5, read-out: Solubility pH 6.5.
The mark [7] stands for this setting: bistrispropane buffer, pH 7, pH 7.0, 18 hours at room temperature, Table 3, read-out: Solubility pH 7.0.
Where [8] appears, read: bistrispropane buffer, pH 7, pH 7.0, read-out: Solubility pH 7.0.
[9] abbreviates: bistrispropane buffer, pH 7.5, pH 7.5, read-out: Solubility pH 7.5.
Where [10] appears, read: bistrispropane buffer, pH 8, pH 8.0, read-out: Solubility pH 8.0.
Setting [11] is: glycylglycine buffer, pH 3, pH 3.0, read-out: Solubility pH 3.0.
The mark [12] stands for this setting: glycylglycine buffer, pH 4, pH 4.0, 18 hours at room temperature, Table 2, read-out: Solubility pH 4.0.
Where [13] appears, read: glycylglycine buffer, pH 4, pH 4.0, read-out: Solubility pH 4.0.
The mark [14] stands for this setting: glycylglycine buffer, pH 5, pH 5.0, read-out: Solubility pH 5.0.
Setting [15] is: Table 2, BHK amylin 3(a)-receptor/CRE-luc cells.

One may read the solubility as how much of the substance goes into solution per volume. For orientation: EC50 means the concentration at which the effect is half-maximal. Consider `CC[C@H](C)[C@H](NC(=O)[C@@H]1CCCN1C(=O)CNC(=O)[C@H](Cc1ccccc1)NC(=O)[C@H](CC(N)=O)NC(=O)[C@H](CC(N)=O)NC(=O)[C@H](CO)NC(=O)[C@H](CO)NC(=O)[C@H](CCCNC(=N)N)NC(=O)[C@H](Cc1c[nH]cn1)NC(=O)[C@H](CC(C)C)NC(=O)[C@H](Cc1ccccc1)NC(=O)[C@H](CCC(=O)O)NC(=O)[C@H](C)NC(=O)[C@H](CC(C)C)NC(=O)[C@H](CCCNC(=N)N)NC(=O)[C@H](CCC(N)=O)NC(=O)[C@@H](NC(=O)[C@H](C)NC(=O)[C@@H]1CSSC[C@H](NC(=O)[C@H](CCC(=O)O)NC(=O)CC[C@H](NC(=O)CCCCCCCCCCCCCCCCCCC(=O)O)C(=O)O)C(=O)N[C@@H](CC(N)=O)C(=O)N[C@@H]([C@@H](C)O)C(=O)N[C@@H](C)C(=O)N[C@@H]([C@@H](C)O)C(=O)N1)[C@@H](C)O)C(=O)N[C@@H](CC(C)C)C(=O)N1CCC[C@H]1C(=O)N1CCC[C@H]1C(=O)N[C@H](C(=O)N[C@@H](CC(N)=O)C(=O)N[C@H](C(=O)NCC(=O)N[C@@H](CO)C(=O)N[C@@H](CC(N)=O)C(=O)N[C@H](C(=O)N[C@@H](Cc1ccc(O)cc1)C(N)=O)[C@@H](C)O)C(C)C)[C@@H](C)O` [Example 30, N-alpha-[(S)-4-Carboxy-4-(19-carboxynonadecanoylamino)butyryl]-[Glu1,Glu14,His17,Arg18]-pramlintide] ({C20 diacid-γGlu}-ECNTATCATQRLAEFLHRSSNNFGPILPPTNVGSNTY-NH2; disulfide 2-7 (inferred)), for which the solubility at 18 h in data set [1] (setting [5]), in data set [1] (setting [6]), in data set [1] (setting [7]), in data set [1] (setting [8]), in data set [1] (setting [9]) and in data set [1] (setting [10]) was > 200 µM each time. The solubility at 18 h in data set [1] (setting [11]) is > 200 µM; in data set [1] (setting [12]), > 200 µM; in data set [1] (setting [13]) it was > 200 µM; in data set [1] (setting [14]), 69 µM (≈ 309 µg/mL). Moreover, in data set [2], the “ThT pH 4.0 lag time (h)” value came to 4.7 h. For the same compound, the EC50 in data set [3] amounted to 0.753 nM; in data set [4] (setting [15]), 0.174 nM.

With `CC[C@H](C)[C@H](NC(=O)[C@@H]1CCCN1C(=O)CNC(=O)[C@H](Cc1ccccc1)NC(=O)[C@H](CC(N)=O)NC(=O)[C@H](CC(N)=O)NC(=O)[C@H](CO)NC(=O)[C@H](CO)NC(=O)[C@H](Cc1c[nH]cn1)NC(=O)[C@H](Cc1c[nH]cn1)NC(=O)[C@H](CC(C)C)NC(=O)[C@H](Cc1ccccc1)NC(=O)[C@H](CCC(=O)O)NC(=O)[C@H](C)NC(=O)[C@H](CC(C)C)NC(=O)[C@H](CCCNC(=N)N)NC(=O)[C@H](CCC(=O)O)NC(=O)[C@@H](NC(=O)[C@H](C)NC(=O)[C@@H]1CSSC[C@H](NC(=O)[C@H](CCCCN)NC(=O)CC[C@H](NC(=O)CCCCCCCCCCCCCCCCCCC(=O)O)C(=O)O)C(=O)N[C@@H](CC(N)=O)C(=O)N[C@@H]([C@@H](C)O)C(=O)N[C@@H](C)C(=O)N[C@@H]([C@@H](C)O)C(=O)N1)[C@@H](C)O)C(=O)N[C@@H](CC(C)C)C(=O)N1CCC[C@H]1C(=O)N1CCC[C@H]1C(=O)N[C@H](C(=O)N[C@@H](CC(N)=O)C(=O)N[C@H](C(=O)NCC(=O)N[C@@H](CO)C(=O)N[C@@H](CC(N)=O)C(=O)N[C@H](C(=O)N[C@@H](Cc1ccc(O)cc1)C(N)=O)[C@@H](C)O)C(C)C)[C@@H](C)O` [Example 54, N-alpha-[(S)-4-Carboxy-4-(19-carboxynonadecanoylamino)butyryl]-[Glu10,Glu14,His17]-pramlintide] ({C20 diacid-γGlu}-KCNTATCATERLAEFLHHSSNNFGPILPPTNVGSNTY-NH2; disulfide 2-7 (inferred)), the solubility at 18 h in data set [1] (setting [5]) is 100 µM (≈ 446 µg/mL); in data set [1] (setting [6]) it was 150 µM (≈ 669 µg/mL); in data set [1] (setting [7]) it was > 200 µM; in data set [1] (setting [8]) it was > 200 µM; in data set [1] (setting [9]), > 200 µM; in data set [1] (setting [10]), > 200 µM. Further, the solubility at 18 h in data set [1] (setting [11]), in data set [1] (setting [12]), in data set [1] (setting [13]) and in data set [1] (setting [14]) was > 200 µM each time. The “ThT pH 4.0 lag time (h)” value in data set [2] is 23 h. The EC50 stood at 0.199 nM in data set [3] and 0.13 nM in data set [4] (setting [15]).

In the case of `CC[C@H](C)[C@H](NC(=O)[C@@H]1CCCN1C(=O)CNC(=O)[C@H](Cc1ccccc1)NC(=O)[C@H](CC(N)=O)NC(=O)[C@H](CC(N)=O)NC(=O)[C@H](CO)NC(=O)[C@H](CO)NC(=O)[C@H](Cc1c[nH]cn1)NC(=O)[C@@H](NC(=O)[C@H](CC(C)C)NC(=O)[C@H](Cc1ccccc1)NC(=O)[C@H](CC(N)=O)NC(=O)[C@H](C)NC(=O)[C@H](CC(C)C)NC(=O)[C@H](CCCNC(=N)N)NC(=O)[C@H](CCC(N)=O)NC(=O)[C@@H](NC(=O)[C@H](C)NC(=O)[C@@H]1CSSC[C@H](NC(=O)[C@H](CCCNC(=N)N)NC(=O)CNC(=O)CC[C@H](NC(=O)CCCCCCCCCCCCCCCCCCC(=O)O)C(=O)O)C(=O)N[C@@H](CC(N)=O)C(=O)N[C@@H]([C@@H](C)O)C(=O)N[C@@H](C)C(=O)N[C@@H]([C@@H](C)O)C(=O)N1)[C@@H](C)O)C(C)C)C(=O)N[C@@H](CC(C)C)C(=O)N1CCC[C@H]1C(=O)N1CCC[C@H]1C(=O)N[C@H](C(=O)N[C@@H](CC(N)=O)C(=O)N[C@H](C(=O)NCC(=O)N[C@@H](CO)C(=O)N[C@@H](CC(N)=O)C(=O)N[C@H](C(=O)N1CCC[C@H]1C(N)=O)[C@@H](C)O)C(C)C)[C@@H](C)O` [Example 103, N-alpha-[(S)-4-Carboxy-4-(19-carboxynonadecanoylamino)butyryl]-Gly-[Arg1,Pro37]-pramlintide] ({C20 diacid-γGlu}-GRCNTATCATQRLANFLVHSSNNFGPILPPTNVGSNTP-NH2; disulfide 3-8 (inferred)), the solubility at 18 h in data set [1] (setting [5]) is > 200 µM; in data set [1] (setting [6]), > 200 µM; in data set [1] (setting [8]), 199 µM (≈ 880 µg/mL); in data set [1] (setting [9]), > 200 µM; in data set [1] (setting [10]), > 200 µM; in data set [1] (setting [11]), > 200 µM. Moreover, the solubility at 18 h in data set [1] (setting [13]) and in data set [1] (setting [14]) was > 200 µM each time. Besides, the “ThT pH 4.0 lag time (h)” value in data set [2] was 1.3 h. Also, the EC50 in data set [3] came out at 0.075 nM; in data set [4] (Table 6, human amylin receptor) it was 0.0525 nM.
